Measurements from US9029377B2, “Platelet-activating factor receptor antagonists” (Merck Sharp & Dohme Corp., priority 2009, dated 2015).

These molecules were tested against PAFR (Homo sapiens, UniProt P25105) (assay: PAF Binding Assay (PAFR binding)).
Chain of PAFR (P25105 whole entry): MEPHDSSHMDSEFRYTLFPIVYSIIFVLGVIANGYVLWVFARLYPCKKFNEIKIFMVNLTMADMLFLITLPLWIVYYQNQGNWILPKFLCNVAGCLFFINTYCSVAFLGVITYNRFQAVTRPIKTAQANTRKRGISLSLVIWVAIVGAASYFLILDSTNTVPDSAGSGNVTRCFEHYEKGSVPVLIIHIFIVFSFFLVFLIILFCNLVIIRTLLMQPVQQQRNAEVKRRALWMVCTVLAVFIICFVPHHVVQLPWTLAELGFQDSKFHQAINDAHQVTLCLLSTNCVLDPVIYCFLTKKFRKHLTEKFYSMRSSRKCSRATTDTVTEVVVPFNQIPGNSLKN

| Structure (SMILES) | IC50 [nM] |
| --- | --- |
| Cc1nncn1[C@@H]1CCC[C@H](NS(=O)(=O)c2ccc(-c3noc(C4CCC4)n3)cc2OC(F)(F)F)C1 [Compound 2Bbg, 4-(5-cyclobutyl-1,2,4-oxadiazol-3-yl)-N-[(1S,3R)-3-(3-methyl-4H-1,2,4-triazol-4-yl)cyclohexyl]-2-(trifluoromethoxy)benzenesulfonamide] | 1.5 |
| CCOc1ccc(S(=O)(=O)N[C@H]2CCC[C@@H](n3cnnc3)C2)cc1 [Compound 2Maa, 4-ethoxy-N-[(1S,3R)-3-(4H-1,2,4-triazol-4-yl)cyclohexyl]benzenesulfonamide] | 39 |
| CCCCOc1ccc(S(=O)(=O)N[C@H]2CCC[C@@H](n3cnnc3C3CC3)C2)c(F)c1 [Compound 2Oag, 4-butoxy-N-[(1S,3R)-3-(3-cyclopropyl-4H-1,2,4-triazol-4-yl)cyclohexyl]-2-fluorobenzenesulfonamide] | 7.2 |
| CCc1cc(-c2ccc(NC(C)=O)cc2)ccc1S(=O)(=O)N[C@H]1CCC[C@@H](n2cnnc2)C1 [Compound 2Aao, N′-[3′-ethyl-4′-({[(1S,3R)-3-(4H-1,2,4-triazol-4-yl)cyclohexyl]amino}sulfonyl)biphenyl-4-yl]acetamide] | 57 |
| O=S(=O)(N[C@H]1CCC[C@@H](n2cnnc2)C1)c1cc(-c2cccs2)cc(C(F)(F)F)c1 [Compound 3Aas, 3-(2-thienyl)-N-[(1S,3R)-3-(4H-1,2,4-triazol-4-yl)cyclohexyl]-5-(trifluoromethyl)benzenesulfonamide] | 3.8 |
| Cc1nncn1[C@H]1C[C@@H](NS(=O)(=O)c2ccc(OCCCCF)cc2)CC(F)(F)C1 [Compound 2Qad, N-[(1R,5S)-3,3-difluoro-5-(3-methyl-4H-1,2,4-triazol-4-yl)cyclohexyl]-4-(4-fluorobutoxy)-benzenesulfonamide] | 8.8 |
| O=S(=O)(N[C@@H]1C[C@H](n2cnnc2)CC(F)(F)C1)c1ccc(-c2ccc(OCC(F)(F)F)nc2)c(F)c1 [2 Gf, N-[(1R,5S)-3,3-difluoro-5-(4H-1,2,4-triazol-4-yl)cyclohexyl]-3-fluoro-4-[6-(2,2,2-trifluoroethoxy)pyridin-3-yl]benzenesulfonamide] | 4.4 |
| Cc1nncn1[C@H]1C[C@@H](NS(=O)(=O)c2ccc(OCCCCF)c(F)c2)CC(F)(F)C1 [Compound 2Hi, N-[(1R,5S)-3,3-difluoro-5-(3-methyl-4H-1,2,4-triazol-4-yl)cyclohexyl]-3-fluoro-4-(4-fluorobutoxy)benzenesulfonamide] | 6.8 |
| O=S(=O)(N[C@@H]1C[C@H](n2cnnc2)CC(F)(F)C1)c1cc(-c2ccc(F)cc2)cc(C(F)(F)F)c1 [3 Cc] | 36 |
| O=S(=O)(N[C@H]1CCC[C@@H](n2cnnc2)C1)c1cc(-c2cccc3nccn23)cc(C(F)(F)F)c1 [Compound 3Aaa, 3-imidazo[1,2-a]-pyridin-5-yl-N-[(1S,3R)-3-(4H-1,2,4-triazol-4-yl)cyclohexyl]-5-(trifluoromethyl)benzenesulfonamide] | 13 |
| O=S(=O)(N[C@H]1CCC[C@@H](n2cnnc2)C1)c1cc(-c2cc(Cl)cn3cc(CCl)nc23)cc(C(F)(F)F)c1 [Compound 3Aav, 3-[6-chloro-2-(chloromethyl)imidazo[1,2-a]pyridin-8-yl]-N-[(1S,3R)-3-(4H-1,2,4-triazol-4-yl)cyclohexyl]-5-(trifluoromethyl)benzenesulfonamide] | 22 |
| Cc1nncn1[C@@H]1CCC[C@H](NS(=O)(=O)c2ccc(-c3ccc(OCC(F)(F)F)nc3)cc2OC(F)(F)F)C1 [Compound 2Bbe, N-[(1S,3R)-3-(3-methyl-4H-1,2,4-triazol-4-yl)cyclohexyl]-4-[6-(2,2,2-trifluoroethoxy)pyridin-3-yl]-2-(trifluoromethoxy)benzenesulfonamide] | 2 |
| CCc1cc(-c2ccc(OC(F)(F)F)cc2)ccc1S(=O)(=O)N[C@@H]1C[C@H](n2cnnc2)CC(F)(F)C1 [Compound 2Cal, N-[(1R,5S)-3,3-difluoro-5-(4H-1,2,4-triazol-4-yl)cyclohexyl]-3-ethyl-4′-(trifluoromethoxy)biphenyl-4-sulfonamide] | 11 |
| CCCCOc1ccc(S(=O)(=O)N[C@H]2CCC[C@@H](n3cnnc3C)C2)c(F)c1 [Compound 2Ji, 4-butoxy-2-fluoro-N-[(1S,3R)-3-(3-methyl-4H-1,2,4-triazol-4-yl)cyclohexyl]benzenesulfonamide] | 4 |

Results, then the molecule that gave them:

| IC50 [nM] | Structure (SMILES) |
| --- | --- |
| 3.6 | Cc1nncn1[C@@H]1CCC[C@H](NS(=O)(=O)c2ccc(-c3ccc(OC(C)C)nc3)c(F)c2)C1 [Compound 2Fe, 3-fluoro-4-(6-isopropoxypyridin-3-yl)-N-[(1S,3R)-3-(3-methyl-4H-1,2,4-triazol-4-yl)cyclohexyl]benzenesulfonamide] |
| 5.1 | CC(C)Oc1ccc(-c2ccc(S(=O)(=O)N[C@H]3CCC[C@@H](n4cnnc4)C3)cc2F)cn1 [Compound 2Ee, 3-fluoro-4-(6-isopropoxypyridin-3-yl)-N-[(1S,3R)-3-(4H-1,2,4-triazol-4-yl)cyclohexyl]benzenesulfonamide] |
| 3.9 | CCc1cc(-c2cccn3ccnc23)ccc1S(=O)(=O)N[C@H]1CCC[C@@H](n2cnnc2)C1 [Compound 2d, 2-ethyl-4-imidazo[1,2-a]pyridin-8-yl-N-[(1S,3R)-3-(4H-1,2,4-triazol-4-yl)cyclohexyl]benzenesulfonamide] |
| 4.8 | O=S(=O)(N[C@@H]1C[C@H](n2cnnc2)CC(F)(F)C1)c1cc(-c2cccc3cccnc23)cc(C(F)(F)F)c1 [Compound 3Cd, N-[(1R,5S)-3,3-difluoro-5-(4H-1,2,4-triazol-4-yl)cyclohexyl]-3-quinolin-8-yl-5-(trifluoromethyl)benzenesulfonamide] |
| 10 | Cc1nncn1[C@@H]1CCC[C@H](NS(=O)(=O)c2ccc(-c3ccc(OC(F)(F)F)cc3)cc2F)C1 [Compound 2Jg, 3-fluoro-N-[(1S,3R)-3-(3-methyl-4H-1,2,4-triazol-4-yl)cyclohexyl]-4′-(trifluoromethoxy)biphenyl-4-sulfonamide] |
| 6.2 | O=S(=O)(N[C@H]1CCC[C@@H](n2cnnc2)C1)c1cc(-c2ccc(F)cc2)cc(C(F)(F)F)c1 [Compound 3Ac, 4′-fluoro-N-[(1S,3R)-3-(4H-1,2,4-triazol-4-yl)cyclohexyl]-5-(trifluoromethyl)biphenyl-3-sulfonamide] |
| 5.4 | O=S(=O)(N[C@H]1CCC[C@@H](n2cnnc2)C1)c1cc(-c2ccccc2F)cc(C(F)(F)F)c1 [Compound 3At, 2′-fluoro-N-[(1S,3R)-3-(4H-1,2,4-triazol-4-yl)cyclohexyl]-5-(trifluoromethyl)biphenyl-3-sulfonamide] |
| 2900 | O=S(=O)(N[C@H]1CCC[C@@H](n2cnnc2)C1)c1cc(F)cc(F)c1 [Compound 2Ma, 3,5-difluoro-N-[(1S,3R)-3-(4H-1,2,4-triazol-4-yl)cyclohexyl]benzenesulfonamide] |
| 10 | O=S(=O)(N[C@H]1CCC[C@@H](n2cnnc2)C1)c1cc(-c2cccc3cnccc23)cc(C(F)(F)F)c1 [Compound 3Az, 3-isoquinolin-5-yl-N-[(1S,3R)-3-(4H-1,2,4-triazol-4-yl)cyclohexyl]-5-(trifluoromethyl)benzenesulfonamide] |
| 9.9 | CCc1cc(-c2ccc(OC)nc2)ccc1S(=O)(=O)N[C@H]1CCC[C@@H](n2cnnc2)C1 [Compound 2Ag, 2-ethyl-4-(6-methoxypyridin-3-yl)-N-[(1S,3R)-3-(4H-1,2,4-triazol-4-yl)cyclohexyl]benzenesulfonamide] |
| 7.8 | O=S(=O)(N[C@H]1CCC[C@@H](n2cnnc2)C1)c1cc(-c2noc(C3CC3)n2)cc(C(F)(F)F)c1 [Compound 3Ah, 3-(5-cyclopropyl-1,2,4-oxadiazol-3-yl)-N-[(1S,3R)-3-(4H-1,2,4-triazol-4-yl)cyclohexyl]-5-(trifluoromethyl)benzenesulfonamide] |
| 5.5 | CCc1cc(-c2noc(C3CC3)n2)ccc1S(=O)(=O)N[C@H]1CCC[C@@H](n2cnnc2C(F)(F)F)C1 [Compound 2Aa, 4-(5-cyclopropyl-1,2,4-oxadiazol-3-yl)-2-ethyl-N-{(1S,3R)-3-[3-(trifluoromethyl)-4H-1,2,4-triazol-4-yl]cyclohexyl}benzenesulfonamide] |
| 63 | CCc1ccc(S(=O)(=O)N[C@H]2CCC[C@@H](n3cnnc3)C2)cc1-c1cccnc1OC [Compound 2Mn, 4-ethyl-3-(2-methoxypyridin-3-yl)-N-[(1S,3R)-3-(4H-1,2,4-triazol-4-yl)cyclohexyl]benzenesulfonamide] |
| 48 | CCc1cc(-c2c(C)noc2C)ccc1S(=O)(=O)N[C@H]1CCC[C@@H](n2cnnc2)C1 [Compound 2Az, 4-(3,5-dimethylisoxazol-4-yl)-2-ethyl-N-[(1S,3R)-3-(4H-1,2,4-triazol-4-yl)cyclohexyl]benzenesulfonamide] |
| 3.2 | CCc1cc(-c2noc(C3CC3)n2)ccc1S(=O)(=O)N[C@H]1CCC[C@@H](n2cnnc2C2CC2)C1 [Compound 2Ab, 4-(5-cyclopropyl-1,2,4-oxadiazol-3-yl)-2-ethyl-N-[(1S,3R)-3-(3-cycloropyl-4H-1,2,4-triazol-4-yl)cyclohexyl]benzenesulfonamide] |
| 5.9 | O=S(=O)(N[C@H]1CCC[C@@H](n2cnnc2)C1)c1cc(-c2ccccc2)cc(C(F)(F)F)c1 [Compound 3Ae, N-[(1S,3R)-3-(4H-1,2,4-triazol-4-yl)cyclohexyl]-5-(trifluoromethyl)biphenyl-3-sulfonamide] |
| 2.9 | O=S(=O)(N[C@H]1CCC[C@@H](n2cnnc2)C1)c1c(C2CC2)cc(-c2noc(C3CC(F)(F)C3)n2)cc1C1CC1 [Compound 2Rc, 2,6-dicyclopropyl-4-[5-(3,3-difluorocyclobutyl)-1,2,4-oxadiazol-3-yl]-N-[(1S,3R)-3-(4H-1,2,4-triazol-4-yl)cyclohexyl]benzenesulfonamide] |
| 165 | O=S(=O)(N[C@H]1CCC[C@@H](n2cnnc2)C1)c1cc(Br)cc(C(F)(F)F)c1 [Compound 2Mi, 3-bromo-N-[(1S,3R)-3-(4H-1,2,4-triazol-4-yl)cyclohexyl]-5-(trifluoromethyl)benzenesulfonamide] |
| 0.8 | Cc1nncn1[C@@H]1CCC[C@H](NS(=O)(=O)c2ccc(-c3ccc(OCC(F)(F)F)cc3)c(F)c2)C1 [Compound 2Fb, 2-fluoro-N-[(1S,3R)-3-(3-methyl-4H-1,2,4-triazol-4-yl)cyclohexyl]-4′-(2,2,2-trifluoroethoxy)biphenyl-4-sulfonamide] |
